Experimental data reported in patent US8222416B2, “Azaindole glucokinase activators” (Hoffmann-La Roche Inc., priority 2009, dated 2012).

Each compound was assayed against T1, Recombinant human liver GK1 (GST-GK) (Homo sapiens, UniProt P35557) (assay: In vitro glucokinase activity assay (G6PDH-coupled, NADH, OD340)). Details: concentration of activator that produced a 50% increase in the activity of GK; 5 mM D-glucose, 30° C.
T1 construct: made in house; host or cells: E. coli
T1 sequence (P35557 1-466 isoform P35557-2): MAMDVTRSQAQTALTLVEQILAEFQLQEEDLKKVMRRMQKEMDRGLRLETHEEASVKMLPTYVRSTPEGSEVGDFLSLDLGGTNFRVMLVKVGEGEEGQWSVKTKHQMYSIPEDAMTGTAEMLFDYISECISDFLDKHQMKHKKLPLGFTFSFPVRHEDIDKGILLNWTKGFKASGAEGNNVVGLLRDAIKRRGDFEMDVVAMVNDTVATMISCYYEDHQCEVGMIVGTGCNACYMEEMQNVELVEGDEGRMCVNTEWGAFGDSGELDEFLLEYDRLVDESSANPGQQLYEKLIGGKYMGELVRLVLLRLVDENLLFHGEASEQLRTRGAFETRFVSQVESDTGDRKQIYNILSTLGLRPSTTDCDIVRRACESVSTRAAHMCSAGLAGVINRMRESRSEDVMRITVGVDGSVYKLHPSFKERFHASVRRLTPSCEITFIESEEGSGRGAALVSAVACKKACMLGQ
Format: biochemical
Protocol: Glucokinase In Vitro Assay Protocol: Glucokinase (GK) was assayed by coupling the production of glucose-6-phosphate to the generation of NADH with glucose-6-phosphate dehydrogenase (G6PDH, 0.75-1 kunits/mg; Boehringer Mannheim, Indianapolis, Ind.) from Leuconostoc mesenteroides as the coupling enzyme (Scheme 2).
Recombinant human liver GK1 was expressed in E. coli as a glutathione S-transferase fusion protein (GST-GK) [Liang et al, 1995] and was purified by chromatography over a glutathione-Sepharose 4B affinity column using the procedure provided by the manufacturer (Amersham Pharmacia Biotech, Piscataway, N.J.).
The assay was conducted at 30° C. in a flat bottom 96-well tissue culture plate from Costar (Cambridge, Mass.) with a final incubation volume of 120 μL. The incubation reaction contained the following: 25 mM Hepes buffer (pH 7.1), 25 mM KCl, 5 mM D-glucose, 1 mM ATP, 1.8 mM NAD, 2 mM MgCl2, 1 μM sorbitol-6-phosphate, 1 mM dithiothreitol, test drug or 10% dimethylsulfoxide, ˜7 units/ml G6PDH, and GK (see below). All organic reagents were >98% pure and were from Boehringer Mannheim with the exceptions of D-glucose and Hepes which were from Sigma Chemical Co, St Louis, Mo. Test compounds were dissolved in dimethylsulfoxide and were added to the incubation reaction minus GST-GK in a volume of 12 μL to yield a final dimethylsulfoxide concentration of 10%. This mix was pre-incubated in the temperature controlled chamber of a SPECTRAmax 250 microplate spectrophotometer (Molecular Devices Corporation, Sunnyvale, Calif.) for 10 minutes to allow temperature equilibrium and then the reaction was started by the addition of 20 μL GST-GK.
After addition of enzyme, the increase in optical density (OD) at 340 nm was monitored spectrophotometrically to determine the rate of change (OD340 per min). The GK activity (OD340/min) in control wells (10% dimethylsulfoxide minus GK activators) was compared with the activity in wells containing test GK activators, and the concentration of activator that produced a 50% increase in the activity of GK, i.e., the SC1.5, was calculated.

Structure (SMILES)	SC1.5
CS(=O)(=O)c1ccc(C(CC2CCCC2)c2cc3cc(OCCO)cnc3[nH]2)cc1 (centres unmarked) [Example 30, 2-{2-[2-Cyclopentyl-1-(4-methanesulfonyl-phenyl)-ethyl]-1H-pyrrolo[2,3-b]pyridin-5-yloxy}-ethanol]	0.8 µM
CC(C)Oc1cnc2[nH]c(C(CC3CCCC3)c3ccc(S(C)(=O)=O)cc3)cc2c1 (centres unmarked) [Example 18, 2-[2-Cyclopentyl-1-(4-methanesulfonyl-phenyl)-ethyl]-5-isopropoxy-1H-pyrrolo[2,3-b]pyridine]	0.719 µM
COCCCc1cnc2[nH]c(C(CC3CCCC3)c3ccc(S(C)(=O)=O)cc3)cc2c1 (centres unmarked) [Example 44, 2-[2-Cyclopentyl-1-(4-methanesulfonyl-phenyl)-ethyl]-5-(3-methoxy-propyl)-1H-pyrrolo[2,3-b]pyridine]	4.3 µM
CC(C)CC(c1ccc(S(C)(=O)=O)cc1)c1cc2cc(C(=O)NC(C)C)cnc2[nH]1 (centres unmarked) [Example 1, 2-[1-(4-Methanesulfonyl-phenyl)-3-methyl-butyl]-1H-pyrrolo[2,3-b]pyridin-5-carboxylic acid isopropylamide]	19.0 µM
COc1cnc2[nH]c(C(CC3CCOCC3)c3ccc(C(F)(F)F)cc3)cc2c1 (centres unmarked) [Example 33, 5-Methoxy-2-[2-(tetrahydro-pyran-4-yl)-1-(4-trifluoromethyl-phenyl)-ethyl]-1H-pyrrolo[2,3-b]pyridine]	3.0 µM
O=S(=O)(CCO)c1ccc(C(CC2CCOCC2)c2cc3cc(F)cnc3[nH]2)cc1 (centres unmarked) [Example 89]	2.5 µM
CC(C)(CO)Oc1cnc2[nH]c(C(CC3CCCC3)c3ccc(S(C)(=O)=O)cc3)cc2c1 (centres unmarked) [Example 28, 2-{2-[2-Cyclopentyl-1-(4-methanesulfonyl-phenyl)-ethyl]-1H-pyrrolo[2,3-b]pyridin-5-yloxy}-2-methyl-propan-1-ol]	2.8 µM
CS(=O)(=O)c1ccc(C(CC2CCCO2)c2cc3cccnc3[nH]2)cc1 (centres unmarked) [Example 71, 2-[1-(4-Methanesulfonyl-phenyl)-2-(tetrahydro-furan-2-yl)-ethyl]-1H-pyrrolo[2,3-b]pyridine]	2.3 µM
CC(C)(Oc1cnc2[nH]c(C(CC3CCCC3)c3ccc(S(C)(=O)=O)cc3)cc2c1)C(=O)O (centres unmarked) [Example 27, 2-{2-[2-Cyclopentyl-1-(4-methanesulfonyl-phenyl)-ethyl]-1H-pyrrolo[2,3-b]pyridin-5-yloxy}-2-methyl-propionic acid]	13.5 µM
CC(C)(O)c1ccc(C(CC2CCCC2)c2cc3cccnc3[nH]2)c(F)c1 (centres unmarked) [Example 94, 2-{4-[2-Cyclopentyl-1-(1H-pyrrolo[2,3-b]pyridin-2-yl)-ethyl]-3-fluoro-phenyl}-propan-2-ol]	2.3 µM
CC(O)c1cnc2[nH]c(C(CC3CCCC3)c3ccc(S(C)(=O)=O)cc3)cc2c1 (single isomer, unassigned) [Example 9, 1-{2-[2-Cyclopentyl-1-(4-methanesulfonyl-phenyl)-ethyl]-1H-pyrrolo[2,3-b]pyridin-5-yl}-ethanol]	10.9 µM
CS(=O)(=O)c1ccc(C(CC2CCC(=O)C2)c2cc3cccnc3[nH]2)cc1 (single isomer, unassigned) [Example 78, 3-[2-(4-Methanesulfonyl-phenyl)-2-(1H-pyrrolo[2,3-b]pyridin-2-yl)-ethyl]-cyclopentanone]	11.9 µM
COCc1cnc2[nH]c(C(CC3CCCC3)c3ccc(S(C)(=O)=O)cc3)cc2c1 (centres unmarked) [Example 41, 2-[2-Cyclopentyl-1-(4-methanesulfonyl-phenyl)-ethyl]-5-methoxymethyl-1H-pyrrolo[2,3-b]pyridine]	2.8 µM
FC(F)(F)c1ccc(C(CC2CCOCC2)c2cc3cccnc3[nH]2)cc1 (centres unmarked) [Example 68, 2-[2-(Tetrahydro-pyran-4-yl)-1-(4-trifluoromethyl-phenyl)-ethyl]-1H-pyrrolo[2,3-b]pyridine]	0.888 µM
CS(=O)(=O)c1ccc(C(O)(CC2CCC2)c2cc3cccnc3[nH]2)cc1C(F)(F)F (centres unmarked) [Example 76, 2-Cyclobutyl-1-(4-methanesulfonyl-3-trifluoromethyl-phenyl)-1-(1H-pyrrolo[2,3-b]pyridin-2-yl)-ethanol]	14.9 µM
CS(=O)(=O)c1ccc(C(CC2CCC(=O)C2)c2cc3cccnc3[nH]2)cc1 (single isomer, unassigned) [Example 79, 3-[2-(4-Methanesulfonyl-phenyl)-2-(1H-pyrrolo[2,3-b]pyridin-2-yl)-ethyl]-cyclopentanone]	0.201 µM
CCOCCS(=O)(=O)c1ccc(C(CC2CCCC2)c2cc3cccnc3[nH]2)cc1 (centres unmarked) [Example 90, 2-{2-Cyclopentyl-1-[4-(2-ethoxy-ethanesulfonyl)-phenyl]-ethyl}-1H-pyrrolo[2,3-b]pyridine]	0.73 µM
COc1cnc2[nH]c(C(CC3CCOCC3)c3ccc(S(C)(=O)=O)cc3)cc2c1 (centres unmarked) [Example 31]	1.9 µM
N#Cc1ccc(C(CC2CCCC2)c2cc3cc(F)cnc3[nH]2)cc1 (centres unmarked) [Example 50, 4-[2-Cyclopentyl-1-(5-fluoro-1H-pyrrolo[2,3-b]pyridin-2-yl)-ethyl]-benzonitrile]	0.603 µM
c1cnc2[nH]c(C(CC3CCCC3)c3ccc4c(c3)OCCO4)cc2c1 (centres unmarked) [Example 62, 2-[2-Cyclopentyl-1-(2,3-dihydro-benzo[1,4]-dioxin-6-yl)-ethyl]-1H-pyrrolo[2,3-b]pyridine]	6.0 µM

Other lines, results leading:

SC1.5	Structure (SMILES)
0.15 µM	CS(=O)(=O)c1ccc(C(CC2CCCC2)c2cc3cc(Cl)cnc3[nH]2)cc1 (centres unmarked) [Example 111, 5-Chloro-2-[2-cyclopentyl-1-(4-methanesulfonyl-phenyl)-ethyl]-1H-pyrrolo[2,3-b]pyridine]
15.2 µM	CC(C)CC(c1cccc(-n2cccn2)c1)c1cc2cccnc2[nH]1 (centres unmarked) [Example 137, 2-(1-(3-(1H-Pyrazol-1-yl)phenyl)-3-methylbutyl)-1H-pyrrolo[2,3-b]pyridine]
0.009 µM	CS(=O)(=O)c1ccc(/C(=C\C2CCCC2)c2cc3cc(F)cnc3[nH]2)cc1 [Example 116, 2-[(E)-2-cyclopentyl-1-(4-methanesulfonyl-phenyl)-vinyl]-5-fluoro-1H-pyrrolo[2,3-b]pyridine]
2.4 µM	CCOc1ccc(C(CC2CCCC2)c2cc3cccnc3[nH]2)cn1 (centres unmarked) [Example 108, 2-[2-Cyclopentyl-1-(6-ethoxy-pyridin-3-yl)-ethyl]-1H-pyrrolo[2,3-b]pyridine]
0.18 µM	CC(C)(O)c1ccc(C(CC2CCCC2)c2cc3cc(F)cnc3[nH]2)cc1F (centres unmarked) [Example 103, 2-{4-[2-Cyclopentyl-1-(5-fluoro-1H-pyrrolo[2,3-b]pyridin-2-yl)-ethyl]-2-fluoro-phenyl}-propan-2-ol]
0.458 µM	CC(C)c1ccc(C(CC2CCCC2)c2cc3cc(F)cnc3[nH]2)cc1 (centres unmarked) [Example 121, 2-[2-Cyclopentyl-1-(4-isopropyl-phenyl)-ethyl]-5-fluoro-1H-pyrrolo[2,3-b]pyridine]
0.081 µM	CC(C)(O)c1ccc([C@@H](CC2CCCC2)c2cc3cc(F)cnc3[nH]2)cc1F (single isomer, unassigned) [Example 104]
0.854 µM	CC(C)CC(c1ccc(S(=O)(=O)CCO)cc1)c1cc2cc(F)cnc2[nH]1 (centres unmarked) [Example 101]
2.2 µM	CS(=O)(=O)c1ccc(C(CC2CCOCC2)c2cc3cc(Cl)cnc3[nH]2)cc1 (centres unmarked) [Example 114, 5-Chloro-2-[1-(4-methanesulfonyl-phenyl)-2-(tetrahydro-pyran-4-yl)-ethyl]-1H-pyrrolo[2,3-b]pyridine]
